Source: patent publication US7883846B2, “Heterologous stimulus-gated ion channels and methods of using same” (priority 2002, dated 2011)
Each block holds one compound with its values, some of them ahead of it.

Columns and labels:
[1] = test system: P2X2; experiment: Photostimulation of P2X2-expressing neurons with caged agonist; format: cell-based, rat
[2] = test system: rat P2X2; experiment: Pharmacological stimulation of transfected hippocampal neurons, whole-cell patch clamp (P2X2); format: cell-based; details: 50 μM ATP, 1-ml bolus, whole-cell current clamp, 50 μM AP-5 plus 10 μM CNQX
Procedure: (§1) Three plasmid species were prepared, each species containing a stimulus-gated ion channel (rat TRPV1, rat TRPM8 or rat P2X2) under the control of the CMV promoter in pCI-fluor, a derivative of the mammalian expression vector pCI-neo (Promega). To create pCI-fluor, the aminoglycoside phosphotransferase coding sequence of pCI-neo was replaced with that of EGFP bearing a 20-amino acid N-terminal GAP43 tag (Zemelman, Lee et al. 2002). Rat TRPV1 and rat TRPM8 were expressed as monomers; rat P2X2 subunits were linked into covalent trimers via tandem repeats of the tripeptide -Ser-Gly-Gly-.
Hippocampal neurons, obtained from E19 rats and grown in dissociated cultures, were exposed to 4.2 μg cm^−2 of calcium phosphate-precipitated plasmid DNA as described in Example 1 (pH 7.08) for 20 min to allow plasmid uptake. Transfections were performed on day 8 after plating; immunocytochemical analyses and electrophysiological recordings on days 6-10 after transfection. […]
(§2) Transfected neurons in cultures and infected neurons in brain slices were identified by GAP43-EGFP fluorescence and recorded in the whole-cell patch-clamp configuration. […] Membrane potentials and transmembrane currents were recorded with an Axoclamp-2B amplifier (Axon Instruments) in bridge and continuous single-electrode voltage-clamp mode, respectively, and digitized at 5 kHz without filtering (Digidata 1200, Axon Instruments). […]

[3] = test system: hippocampal neurons lacking the cognate exogenous receptor; experiment: Stimulation of hippocampal neurons lacking the cognate exogenous receptor / untransfected neurons; format: cell-based, rat; details: 50 nM capsaicin, 100 μM menthol, 50 μM ATP; off-diagonal receptor-agonist combinations
[4] = molecular target: T1, rat TRPM8 (Rattus norvegicus, UniProt Q8R455); experiment: Pharmacological stimulation of transfected hippocampal neurons, whole-cell patch clamp (TRPM8); format: cell-based
T1 construct: expressed in transfected cells; host or cells: dissociated hippocampal neurons from E19 rats, calcium phosphate transfection of pCI-fluor plasmid
Procedure: as §1, with “-Ser-Gly-Gly-. […]” for “-Ser-Gly-Gly-.”
as §2
(§3) To determine dose-response relationships, the peak amplitudes as well as the integrated charges carried by depolarizing currents at different agonist concentrations were measured under whole-cell voltage clamp, at a constant holding potential of −65 mV.

[5] = molecular target: T2, TRPV1 (Rattus norvegicus, UniProt O35433); format: cell-based
T2 construct: expressed in transfected cells; host or cells: dissociated hippocampal neurons from E19 rats, calcium phosphate transfection of pCI-fluor plasmid

[6] = molecular target: T3, rat TRPV1 (Rattus norvegicus, UniProt O35433); experiment: Pharmacological stimulation of transfected hippocampal neurons, whole-cell patch clamp (TRPV1); format: cell-based
T3 construct: expressed in transfected cells; host or cells: dissociated hippocampal neurons from E19 rats, calcium phosphate transfection of pCI-fluor plasmid
Procedure: as §1, with “-Ser-Gly-Gly-. […]” for “-Ser-Gly-Gly-.”
as §2, §3

[7] = molecular target: T4, TRPV1 expressed ectopically in nociceptor neurons of C. elegans (Rattus norvegicus, UniProt O35433); details: wild-type animals lack the behavior; cited from earlier work
T4 construct: host or cells: transgenic C. elegans nociceptor neurons

[8] = 1 mM DMNPE-ATP, 1-s light pulse, mean±s.d., n=16

T2 sequence (O35433 whole entry): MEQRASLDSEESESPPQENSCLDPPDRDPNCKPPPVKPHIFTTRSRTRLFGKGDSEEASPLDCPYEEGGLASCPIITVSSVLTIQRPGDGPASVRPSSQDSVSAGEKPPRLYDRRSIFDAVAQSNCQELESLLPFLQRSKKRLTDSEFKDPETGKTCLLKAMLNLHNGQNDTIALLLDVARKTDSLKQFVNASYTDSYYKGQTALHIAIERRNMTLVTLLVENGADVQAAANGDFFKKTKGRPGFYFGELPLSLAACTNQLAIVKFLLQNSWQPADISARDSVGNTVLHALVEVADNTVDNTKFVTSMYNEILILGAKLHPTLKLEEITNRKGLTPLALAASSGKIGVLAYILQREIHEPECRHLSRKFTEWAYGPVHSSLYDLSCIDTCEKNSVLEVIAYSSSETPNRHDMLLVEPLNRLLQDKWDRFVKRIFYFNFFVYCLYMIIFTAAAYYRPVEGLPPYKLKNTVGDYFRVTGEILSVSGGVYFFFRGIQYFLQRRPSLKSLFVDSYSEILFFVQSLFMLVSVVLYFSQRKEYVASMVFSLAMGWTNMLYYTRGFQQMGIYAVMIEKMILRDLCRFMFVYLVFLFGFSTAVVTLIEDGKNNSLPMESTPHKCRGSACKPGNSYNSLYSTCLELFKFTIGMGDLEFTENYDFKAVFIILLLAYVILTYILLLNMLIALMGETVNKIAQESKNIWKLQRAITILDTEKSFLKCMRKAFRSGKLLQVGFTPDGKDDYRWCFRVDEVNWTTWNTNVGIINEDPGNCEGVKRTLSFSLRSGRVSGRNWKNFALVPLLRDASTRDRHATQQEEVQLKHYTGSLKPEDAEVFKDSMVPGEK
Chain of P2X2 (P49653 whole entry): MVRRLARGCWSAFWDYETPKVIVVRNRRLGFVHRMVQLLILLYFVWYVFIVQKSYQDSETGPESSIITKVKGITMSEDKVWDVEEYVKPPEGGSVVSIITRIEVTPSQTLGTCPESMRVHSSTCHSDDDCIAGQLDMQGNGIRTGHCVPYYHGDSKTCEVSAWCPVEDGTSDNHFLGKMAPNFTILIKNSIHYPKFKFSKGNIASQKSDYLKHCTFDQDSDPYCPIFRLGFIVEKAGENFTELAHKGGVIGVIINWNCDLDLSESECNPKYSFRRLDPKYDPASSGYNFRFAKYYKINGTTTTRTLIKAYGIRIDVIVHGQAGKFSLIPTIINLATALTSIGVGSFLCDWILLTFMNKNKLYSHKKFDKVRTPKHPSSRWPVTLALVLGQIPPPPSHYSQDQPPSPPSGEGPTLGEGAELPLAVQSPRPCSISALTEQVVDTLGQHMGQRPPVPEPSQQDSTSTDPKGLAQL
T3 sequence (O35433 whole entry): as the sequence (O35433 whole entry) above
T1 sequence (Q8R455 whole entry): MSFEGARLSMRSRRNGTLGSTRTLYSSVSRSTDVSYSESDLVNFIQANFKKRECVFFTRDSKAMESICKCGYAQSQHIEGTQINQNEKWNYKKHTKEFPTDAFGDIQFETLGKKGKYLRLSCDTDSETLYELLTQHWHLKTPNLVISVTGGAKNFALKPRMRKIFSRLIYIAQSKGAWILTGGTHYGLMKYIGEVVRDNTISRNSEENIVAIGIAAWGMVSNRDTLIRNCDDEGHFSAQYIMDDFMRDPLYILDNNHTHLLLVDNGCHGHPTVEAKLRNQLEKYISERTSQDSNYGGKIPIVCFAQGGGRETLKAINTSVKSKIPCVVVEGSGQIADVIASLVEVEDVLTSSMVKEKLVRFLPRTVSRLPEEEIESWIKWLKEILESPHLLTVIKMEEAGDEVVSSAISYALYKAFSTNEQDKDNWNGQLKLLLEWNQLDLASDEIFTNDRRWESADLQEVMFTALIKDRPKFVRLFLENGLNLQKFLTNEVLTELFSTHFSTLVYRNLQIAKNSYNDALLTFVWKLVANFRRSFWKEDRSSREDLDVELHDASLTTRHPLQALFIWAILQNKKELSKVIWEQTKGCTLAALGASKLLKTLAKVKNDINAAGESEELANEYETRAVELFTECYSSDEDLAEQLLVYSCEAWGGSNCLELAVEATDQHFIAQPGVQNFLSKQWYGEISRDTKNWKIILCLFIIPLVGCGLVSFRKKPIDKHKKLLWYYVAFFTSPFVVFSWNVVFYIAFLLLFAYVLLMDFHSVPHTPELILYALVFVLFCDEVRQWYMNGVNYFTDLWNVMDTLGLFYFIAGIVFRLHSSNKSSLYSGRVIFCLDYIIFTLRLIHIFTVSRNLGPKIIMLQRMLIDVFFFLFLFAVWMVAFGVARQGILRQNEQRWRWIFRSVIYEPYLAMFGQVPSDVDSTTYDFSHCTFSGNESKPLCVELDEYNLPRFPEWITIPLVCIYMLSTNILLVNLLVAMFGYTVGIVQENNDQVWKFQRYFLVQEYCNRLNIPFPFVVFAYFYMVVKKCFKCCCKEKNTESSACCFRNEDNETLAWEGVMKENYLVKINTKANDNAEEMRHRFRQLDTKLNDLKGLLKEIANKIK
T4 sequence (O35433 whole entry): as the sequence (O35433 whole entry) above

biological activity due to chemical or enzymatic decomposition of the caged compound ([1]; recordings lasting for >30 min, 1 mM): No trace of biological activity
Compound: P3-(1-(4,5-dimethoxy-2-nitrophenyl)ethyl) (DMNPE) ester of ATP [DMNPE-ATP]
duration of window of activity [1, 8]: 2,456±1,273 ms
lag period between optical stimulus and window of activity [1, 8]: 1,136±96 ms
membrane potentials and transmembrane conductances in presence of caged ligand without light ([1]; 1 mM DMNPE-ATP, whole-cell current- or voltage-clamp): unaffected

Compound: Nc1ncnc2c1ncn2[C@@H]1O[C@H](COP(=O)(O)OP(=O)(O)OP(=O)(O)O)[C@@H](O)[C@H]1O [ATP]
response of membrane potential to a bolus of agonist [2]: depolarization, spiking, and repolarization
stimulation of hippocampal neurons lacking the cognate exogenous receptor [3]: None of the three agonists, including ATP, was able to stimulate

Compound: CC(C)[C@@H]1CC[C@@H](C)C[C@H]1O [menthol, [1R,2S,5R]-5-methyl-2-[1-methylethyl]cyclo-hexanol]
response of membrane potential to a bolus of agonist ([4]; 100 μM menthol, 1-ml bolus, whole-cell current clamp, 50 μM AP-5 plus 10 μM CNQX): depolarization, spiking, and repolarization
EC50 ([4]; whole-cell voltage clamp, holding potential −65 mV, results not shown, read-out: half-maximal response): 150 µM
stimulation of hippocampal neurons lacking the cognate exogenous receptor [3]: None of the three agonists, including ATP, was able to stimulate

Compound: COc1cc(COC(=O)Oc2ccc(CNC(=O)CCCC/C=C/C(C)C)cc2OC)c([N+](=O)[O-])cc1OC [DMNB-capsaicin]
action potential frequency after light pulse [5]: 15-40 Hz
biological activity due to chemical or enzymatic decomposition of the caged compound [5]: No trace of biological activity
duration of window of activity [5]: 2,651±383 ms
lag of onset of activity behind optical stimulus [5]: 5,035±2,061 ms
membrane potentials and transmembrane conductances in presence of caged ligand without light [5]: unaffected
response on repeated photostimulation of the same neuron [5]: did not attenuate

Compound: COc1cc(CNC(=O)CCCC/C=C/C(C)C)ccc1O [capsaicin]
response of membrane potential to a bolus of agonist ([6]; 50 nM capsaicin, 1-ml bolus, whole-cell current clamp, 50 μM AP-5 plus 10 μM CNQX): depolarization, spiking, and repolarization
peak spike rate (firing frequency) ([6]; current clamp, sliding 200-ms windows, increasing agonist concentration, 382 agonist applications to 60 neurons): 40 Hz
stimulation of hippocampal neurons lacking the cognate exogenous receptor [3]: None of the three agonists, including ATP, was able to stimulate
behavior elicited in C. elegans [7]: avoidance behaviors
